Test results from US5502035A, “N-terminus modified analogs of LHRH” (Tap Holdings Inc., priority 1994, dated 1996).
Non-standard residues stand in square brackets, D forms with d. Residues, ends and D or L forms follow the SMILES beside them. Groups on a side chain read outwards from the residue. *: point of attachment. Shikimoyl = O=C(C1=C[C@@H](O)[C@@H](O)[C@H](O)C1)*; dPhe(4-Cl) = N[C@H](Cc1ccc(Cl)cc1)C(=O)O; d1Nal = N[C@H](Cc1cccc2ccccc12)C(=O)O; d2Nal = N[C@H](Cc1ccc2ccccc2c1)C(=O)O; NMeY = CN[C@@H](Cc1ccc(O)cc1)C(=O)O; NMeF = CN[C@@H](Cc1ccccc1)C(=O)O; d3Pal = N[C@H](Cc1cccnc1)C(=O)O; Nicotinoyl = O=C(c1cccnc1)*

Molecular target: T1, LHRH (Rattus norvegicus, UniProt P30969)
T1 construct: endogenous in cells; host or cells: rat pituitary cells (own knowledge of the cited Haviv 1989 method)
T1 sequence (P30969 1-327): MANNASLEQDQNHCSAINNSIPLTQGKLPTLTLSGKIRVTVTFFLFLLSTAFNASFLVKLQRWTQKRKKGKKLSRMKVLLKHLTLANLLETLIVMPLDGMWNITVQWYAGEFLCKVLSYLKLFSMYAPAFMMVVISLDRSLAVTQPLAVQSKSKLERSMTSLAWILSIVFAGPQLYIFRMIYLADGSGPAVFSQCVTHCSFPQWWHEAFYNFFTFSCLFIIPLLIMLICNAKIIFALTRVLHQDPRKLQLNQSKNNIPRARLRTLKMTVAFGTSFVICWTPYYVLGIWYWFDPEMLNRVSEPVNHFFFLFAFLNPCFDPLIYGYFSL
Test: in vitro test for LHRH antagonist potency (pA2)
Type: cell-based
Settings: negative logarithm of the antagonist concentration required to shift the response curve produced by the agonist leuprolide to two-fold higher concentration
Procedure, shortened: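 Rat LHRH receptor in vitro functional test; pA2 = negative log of the antagonist concentration shifting the leuprolide agonist response curve to two-fold higher concentration.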

CC(C)C[C@H](NC(=O)[C@@H](CCCCNC(=O)C1=C[C@@H](O)[C@@H](O)[C@H](O)C1)NC(=O)[C@H](Cc1ccc(O)cc1)N(C)C(=O)[C@H](CO)NC(=O)[C@@H](Cc1cccnc1)NC(=O)[C@@H](Cc1ccc(Cl)cc1)NC(=O)[C@@H](Cc1ccc2ccccc2c1)NC(=O)[C@@H](CCCCNC(=O)c1cccnc1)NC(=O)c1cccnc1)C(=O)N[C@@H](CCCNC(=N)N)C(=O)N1CCC[C@H]1C(=O)N[C@H](C)C(N)=O [Example 14g, N-Nicotinyl-DLys(Nic)-D2Nal-D4ClPhe-D3Pal-Ser-NMeTyr-DLys(Shik)-Leu-Arg-Pro-DAlaNH2] (Nicotinoyl-[dK](Nicotinoyl)[d2Nal][dPhe(4-Cl)][d3Pal]S[NMeY][dK](Shikimoyl)LRP[dA]-NH2)
Kb: 0.11 nM

CC(C)C[C@H](NC(=O)[C@@H](CCCCNC(=O)C1=C[C@@H](O)[C@@H](O)[C@H](O)C1)NC(=O)[C@H](Cc1ccc(O)cc1)N(C)C(=O)[C@H](CO)NC(=O)[C@@H](Cc1cccnc1)NC(=O)[C@@H](Cc1ccc(Cl)cc1)NC(=O)[C@@H](Cc1ccc2ccccc2c1)NC(=O)[C@@H](CCCCNC(=O)c1cccnc1)NC(=O)C1=C[C@@H](O)[C@@H](O)[C@H](O)C1)C(=O)N[C@@H](CCCNC(=N)N)C(=O)N1CCC[C@H]1C(=O)N[C@H](C)C(N)=O [Example 14h, N-Shikimyl-DLys(Nic)-D2Nal-D4ClPhe-D3Pal-Ser-NMeTyr-DLys(Shik)-Leu-Arg-Pro-DAlaNH2] (Shikimoyl-[dK](Nicotinoyl)[d2Nal][dPhe(4-Cl)][d3Pal]S[NMeY][dK](Shikimoyl)LRP[dA]-NH2)
Kb: 0.00417 nM

CC(C)C[C@H](NC(=O)[C@@H](CCCCNC(=O)C1=C[C@@H](O)[C@@H](O)[C@H](O)C1)NC(=O)[C@H](Cc1ccc(O)cc1)N(C)C(=O)[C@H](CO)NC(=O)[C@@H](Cc1cccnc1)NC(=O)[C@@H](Cc1ccc(Cl)cc1)NC(=O)[C@@H](Cc1ccc2ccccc2c1)NC(=O)[C@@H](CCCCNC(=O)C1=C[C@@H](O)[C@@H](O)[C@H](O)C1)NC(=O)c1cccnc1)C(=O)N[C@@H](CCCNC(=N)N)C(=O)N1CCC[C@H]1C(=O)N[C@H](C)C(N)=O [Example 14i, N-Nicotinyl-DLys(Shik)-D2Nal-D4ClPhe-D3Pal-Ser-NMeTyr-DLys(Shik)-Leu-Arg-Pro-DAlaNH2] (Nicotinoyl-[dK](Shikimoyl)[d2Nal][dPhe(4-Cl)][d3Pal]S[NMeY][dK](Shikimoyl)LRP[dA]-NH2)
Kb: 0.339 nM

CC(C)C[C@H](NC(=O)[C@@H](CCCCNC(=O)C1=C[C@@H](O)[C@@H](O)[C@H](O)C1)NC(=O)[C@H](Cc1ccc(O)cc1)N(C)C(=O)[C@H](CO)NC(=O)[C@@H](Cc1cccnc1)NC(=O)[C@@H](Cc1ccc(Cl)cc1)NC(=O)[C@@H](Cc1ccc2ccccc2c1)NC(=O)[C@@H](CCCCNC(=O)C1=C[C@@H](O)[C@@H](O)[C@H](O)C1)NC(=O)C1=C[C@@H](O)[C@@H](O)[C@H](O)C1)C(=O)N[C@@H](CCCNC(=N)N)C(=O)N1CCC[C@H]1C(=O)N[C@H](C)C(N)=O [Example 14j, N-Shikimyl-DLys(Shik)-D2Nal-D4ClPhe-D3Pal-Ser-NMeTyr-DLys(Shik)-Leu-Arg-Pro-DAlaNH2] (Shikimoyl-[dK](Shikimoyl)[d2Nal][dPhe(4-Cl)][d3Pal]S[NMeY][dK](Shikimoyl)LRP[dA]-NH2)
Kb: 0.759 nM

CC(C)C[C@H](NC(=O)[C@@H](CCCCNC(=O)C1=C[C@@H](O)[C@@H](O)[C@H](O)C1)NC(=O)[C@H](Cc1ccc(O)cc1)N(C)C(=O)[C@H](CO)NC(=O)[C@@H](Cc1cccnc1)NC(=O)[C@@H](Cc1ccc(Cl)cc1)NC(=O)[C@@H](Cc1ccc2ccccc2c1)NC(=O)CNC(=O)c1cccnc1)C(=O)N[C@@H](CCCNC(=N)N)C(=O)N1CCC[C@H]1C(=O)N[C@H](C)C(N)=O [Example 14k, N-Nicotinyl-Gly-D2Nal-D4ClPhe-D3Pal-Ser-NMeTyr-DLys(Shik)-Leu-Arg-Pro-DAlaNH2] (Nicotinoyl-G[d2Nal][dPhe(4-Cl)][d3Pal]S[NMeY][dK](Shikimoyl)LRP[dA]-NH2)
Kb: 0.01 nM

CC(C)C[C@H](NC(=O)[C@@H](CCCCNC(=O)C1=C[C@@H](O)[C@@H](O)[C@H](O)C1)NC(=O)[C@H](Cc1ccc(O)cc1)N(C)C(=O)[C@H](CO)NC(=O)[C@@H](Cc1cccnc1)NC(=O)[C@@H](Cc1ccc(Cl)cc1)NC(=O)[C@@H](Cc1ccc2ccccc2c1)NC(=O)CNC(=O)C1=C[C@@H](O)[C@@H](O)[C@H](O)C1)C(=O)N[C@@H](CCCNC(=N)N)C(=O)N1CCC[C@H]1C(=O)N[C@H](C)C(N)=O [Example 14l, N-Shikimyl-Gly-D2Nal-D4ClPhe-D3Pal-Ser-NMeTyr-DLys(Shik)-Leu-Arg-Pro-DAlaNH2] (Shikimoyl-G[d2Nal][dPhe(4-Cl)][d3Pal]S[NMeY][dK](Shikimoyl)LRP[dA]-NH2)
Kb: 0.02 nM

CC(C)C[C@H](NC(=O)[C@@H](CCCCNC(=O)c1cccnc1)NC(=O)[C@H](Cc1ccc(O)cc1)N(C)C(=O)[C@H](CO)NC(=O)[C@@H](Cc1cccnc1)NC(=O)[C@@H](Cc1ccc(Cl)cc1)NC(=O)[C@@H](Cc1ccc2ccccc2c1)NC(=O)CNC(=O)C1=C[C@@H](O)[C@@H](O)[C@H](O)C1)C(=O)N[C@@H](CCCNC(=N)N)C(=O)N1CCC[C@H]1C(=O)N[C@H](C)C(N)=O [Example 15a, N-Shikimyl-Gly-D2Nal-D4ClPhe-D3Pal-Ser-NMeTyr-DLys(Nic)-Leu-Arg-Pro-DAlaNH2] (Shikimoyl-G[d2Nal][dPhe(4-Cl)][d3Pal]S[NMeY][dK](Nicotinoyl)LRP[dA]-NH2)
Kb: 0.0631 nM

CC(C)C[C@H](NC(=O)[C@@H](CCCCNC(=O)CNC(=O)c1cccnc1)NC(=O)[C@H](Cc1ccc(O)cc1)N(C)C(=O)[C@H](CO)NC(=O)[C@@H](Cc1cccnc1)NC(=O)[C@@H](Cc1ccc(Cl)cc1)NC(=O)[C@@H](Cc1ccc2ccccc2c1)NC(=O)CNC(=O)C1=C[C@@H](O)[C@@H](O)[C@H](O)C1)C(=O)N[C@@H](CCCNC(=N)N)C(=O)N1CCC[C@H]1C(=O)N[C@H](C)C(N)=O [Example 15b, N-Shikimyl-Gly-D2Nal-D4ClPhe-D3Pal-Ser-NMeTyr-DLys(Gly-Nic)-Leu-Arg-Pro-DAlaNH2] (Shikimoyl-G[d2Nal][dPhe(4-Cl)][d3Pal]S[NMeY][dK]([Gly-Nicotinoyl])LRP[dA]-NH2)
Kb: 0.0209 nM

CC(C)C[C@H](NC(=O)[C@@H](CCCCNC(=O)[C@@H](CO)NC(=O)c1cccnc1)NC(=O)[C@H](Cc1ccc(O)cc1)N(C)C(=O)[C@H](CO)NC(=O)[C@@H](Cc1cccnc1)NC(=O)[C@@H](Cc1ccc(Cl)cc1)NC(=O)[C@@H](Cc1ccc2ccccc2c1)NC(=O)CNC(=O)C1=C[C@@H](O)[C@@H](O)[C@H](O)C1)C(=O)N[C@@H](CCCNC(=N)N)C(=O)N1CCC[C@H]1C(=O)N[C@H](C)C(N)=O [Example 15c, N-Shikimyl-Gly-D2Nal-D4ClPhe-D3Pal-Ser-NMeTyr-DLys(DSer-Nic)-Leu-Arg-Pro-DAlaNH2] (Shikimoyl-G[d2Nal][dPhe(4-Cl)][d3Pal]S[NMeY][dK]([dS-Nicotinoyl])LRP[dA]-NH2)
Kb: 0.01 nM

CC(C)C[C@H](NC(=O)[C@@H](CCCCNC(=O)CNC(=O)C1=C[C@@H](O)[C@@H](O)[C@H](O)C1)NC(=O)[C@H](Cc1ccc(O)cc1)N(C)C(=O)[C@H](CO)NC(=O)[C@@H](Cc1cccnc1)NC(=O)[C@@H](Cc1ccc(Cl)cc1)NC(=O)[C@@H](Cc1ccc2ccccc2c1)NC(=O)CNC(=O)C1=C[C@@H](O)[C@@H](O)[C@H](O)C1)C(=O)N[C@@H](CCCNC(=N)N)C(=O)N1CCC[C@H]1C(=O)N[C@H](C)C(N)=O [Example 15d, N-Shikimyl-Gly-D2Nal-D4ClPhe-D3Pal-Ser-NMeTyr-DLys(Gly-Shik)-Leu-Arg-Pro-DAlaNH2] (Shikimoyl-G[d2Nal][dPhe(4-Cl)][d3Pal]S[NMeY][dK]([Gly-Shikimoyl])LRP[dA]-NH2)
Kb: 0.0178 nM

CC(C)C[C@H](NC(=O)[C@@H](CCCCNC(=O)C1=C[C@@H](O)[C@@H](O)[C@H](O)C1)NC(=O)[C@H](Cc1ccc(O)cc1)N(C)C(=O)[C@H](CO)NC(=O)[C@@H](Cc1cccc2ccccc12)NC(=O)[C@@H](Cc1ccc(Cl)cc1)NC(=O)[C@@H](Cc1ccc2ccccc2c1)NC(=O)CNC(=O)C1=C[C@@H](O)[C@@H](O)[C@H](O)C1)C(=O)N[C@@H](CCCNC(=N)N)C(=O)N1CCC[C@H]1C(=O)N[C@H](C)C(N)=O [Example 16, N-Shikimyl-Gly-D2Nal-D4ClPhe-D 1Nal-Ser-NMeTyr-DLys(Shik)-Leu-Arg-Pro-DAlaNH2] (Shikimoyl-G[d2Nal][dPhe(4-Cl)][d1Nal]S[NMeY][dK](Shikimoyl)LRP[dA]-NH2)
Kb: 0.0288 nM

CC(C)C[C@H](NC(=O)[C@@H](CCCCNC(=O)C1=C[C@@H](O)[C@@H](O)[C@H](O)C1)NC(=O)[C@H](Cc1ccccc1)N(C)C(=O)[C@H](CO)NC(=O)[C@@H](Cc1cccnc1)NC(=O)[C@@H](Cc1ccc(Cl)cc1)NC(=O)[C@@H](Cc1ccc2ccccc2c1)NC(=O)CNC(=O)C1=C[C@@H](O)[C@@H](O)[C@H](O)C1)C(=O)N[C@@H](CCCNC(=N)N)C(=O)N1CCC[C@H]1C(=O)N[C@H](C)C(N)=O [Example 17, N-Shikimyl-Gly-D2Nal-D4ClPhe-D3Pal-Ser-NMePhe-DLys(Shik)-Leu-Arg-Pro-DAlaNH2] (Shikimoyl-G[d2Nal][dPhe(4-Cl)][d3Pal]S[NMeF][dK](Shikimoyl)LRP[dA]-NH2)
Kb: 0.0112 nM

CC[C@H](C)[C@H](NC(=O)[C@@H](CCCCNC(=O)C1=C[C@@H](O)[C@@H](O)[C@H](O)C1)NC(=O)[C@H](Cc1ccc(O)cc1)N(C)C(=O)[C@H](CO)NC(=O)[C@@H](Cc1cccnc1)NC(=O)[C@@H](Cc1ccc(Cl)cc1)NC(=O)[C@@H](Cc1ccc2ccccc2c1)NC(=O)CNC(=O)C1=C[C@@H](O)[C@@H](O)[C@H](O)C1)C(=O)N[C@@H](CCCNC(=N)N)C(=O)N1CCC[C@H]1C(=O)N[C@H](C)C(N)=O [Example 18a, N-Shikimyl-Gly-D2Nal-D4ClPhe-D3Pal-Ser-NMeTyr-DLys(Shik)-Ile-Arg-Pro-DAlaNH2] (Shikimoyl-G[d2Nal][dPhe(4-Cl)][d3Pal]S[NMeY][dK](Shikimoyl)IRP[dA]-NH2)
Kb: 0.0166 nM
